In the supplement of paper PMC10307832:

Columns and labels:
Assay in all cases: relative viability (nuclei count vs DMSO), 5 days (fraction); higher = more cells survive
BGJ398 + Tozasertib = compound: CCN1CCN(c2ccc(Nc3cc(N(C)C(=O)Nc4c(Cl)c(OC)cc(OC)c4Cl)ncn3)cc2)CC1 [BGJ398] + Cc1cc(Nc2cc(N3CCN(C)CC3)nc(Sc3ccc(NC(=O)C4CC4)cc3)n2)n[nH]1 [Tozasertib] (partner 0.1 µM)
In short: (§1)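 Relative viability equals treated-well nuclei counts divided by vehicle-well nuclei counts. Counts came from 4× images of lung cancer cell lines grown in 1536-well plates for 5 days after pin-tool dosing on the day after seeding. Dosing used one drug alone or a fixed anchor-drug dose plus five library-drug doses (not always all listed) in √10 steps, and values are medians of duplicate plates.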

[1] = compound: C1=CC2=NC=CN=C2C=C1/C=C/3\C(=O)NC(=O)S3 + C[C@@H](Oc1cc(-c2cnn(C3CCNCC3)c2)cnc1N)c1c(Cl)ccc(F)c1Cl [Crizotinib] (partner 1 µM)
In short: as §1

BGJ398 + Vorinostat = compound: CCN1CCN(c2ccc(Nc3cc(N(C)C(=O)Nc4c(Cl)c(OC)cc(OC)c4Cl)ncn3)cc2)CC1 [BGJ398] + O=C(CCCCCCC(=O)Nc1ccccc1)NO [Vorinostat] (partner 1 µM)
In short: as §1

[2] = compound: C1=CC2=NC=CN=C2C=C1/C=C/3\C(=O)NC(=O)S3 + Nc1ncn([C@H]2C[C@H](O)[C@@H](CO)O2)c(=O)n1 [Decitabine] (partner 2 µM)
In short: as §1

Row | Cell Line | relative viability (BGJ398 + Tozasertib; first compound 0.01 µM) | relative viability (BGJ398 + Tozasertib; first compound 0.03162 µM) | relative viability (BGJ398 + Tozasertib; first compound 0.1 µM) | relative viability (BGJ398 + Tozasertib; first compound 0.3162 µM) | relative viability (BGJ398 + Tozasertib; first compound 1 µM) | relative viability ([1]; first compound 0.02 µM) | relative viability ([1]; first compound 0.06325 µM) | relative viability ([1]; first compound 0.2 µM) | relative viability ([1]; first compound 0.6325 µM) | relative viability ([1]; first compound 2 µM) | relative viability (BGJ398 + Vorinostat; first compound 0.01 µM) | relative viability (BGJ398 + Vorinostat; first compound 0.03162 µM) | relative viability (BGJ398 + Vorinostat; first compound 0.1 µM) | relative viability (BGJ398 + Vorinostat; first compound 0.3162 µM) | relative viability (BGJ398 + Vorinostat; first compound 1 µM) | relative viability ([2]; first compound 0.02 µM) | relative viability ([2]; first compound 0.06325 µM) | relative viability ([2]; first compound 0.2 µM) | relative viability ([2]; first compound 0.6325 µM) | relative viability ([2]; first compound 2 µM)
1 | LC-2-ad | 0.451 | 0.489 | 0.486 | 0.474 | 0.374 | 0.412 | 0.363 | 0.402 | 0.44 | 0.715 | 0.708 | 0.76 | 0.742 | 0.687 | 0.703 | 0.781 | 0.862 | 0.84 | 0.86 | 0.727
2 | SK-LU-1 | 0.354 | 0.34 | 0.312 | 0.284 | 0.222 | 0.913 | 1.3 | 0.985 | 0.903 | 1.07 | 0.764 | 0.773 | 0.839 | 0.767 | 0.774 | 0.597 | 0.712 | 0.74 | 0.639 | 0.596
3 | ChaGo-K-1 | 0.229 | 0.24 | 0.19 | 0.215 | 0.226 | 1.02 | 0.613 | 1.12 | 1.07 | 1.02 | 0.67 | 0.775 | 0.706 | 0.802 | 0.794 | 0.512 | 0.459 | 0.533 | 0.498 | 0.568
4 | COR-L 105 | 0.291 | 0.346 | 0.339 | 0.418 | 0.324 | 0.613 | 0.887 | 0.905 | 0.814 | 0.711 | 0.656 | 0.727 | 0.879 | 0.828 | 0.931 | 0.599 | 0.69 | 0.673 | 0.683 | 0.593
5 | NCI-H1975 | 0.774 | 0.758 | 0.695 | 0.5 | 0.415 | 1.02 | 1.01 | 0.937 | 1.03 | 0.97 | 0.677 | 0.794 | 0.758 | 0.677 | 0.672 | 0.362 | 0.359 | 0.436 | 0.37 | 0.359
6 | NCI-H1993 | 0.526 | 0.546 | 0.651 | 0.581 | 0.616 | 0.914 | 1.03 | 0.806 | 0.848 | 0.668 | 0.968 | 0.93 | 0.703 | 0.691 | 0.892 | 0.527 | 0.594 | 0.737 | 0.557 | 0.507
7 | RERF-LC-KJ | 0.455 | 0.558 | 0.479 | 0.441 | 0.533 | 0.547 | 0.927 | 0.864 | 0.837 | 0.753 | 0.668 | 0.643 | 0.765 | 0.727 | 0.539 | 0.596 | 0.726 | 0.681 | 0.632 | 0.628
8 | NCI-H23 | 0.387 | 0.339 | 0.335 | 0.36 | 0.304 | 0.49 | 0.629 | 0.498 | 0.555 | 0.351 | 0.611 | 0.668 | 0.722 | 0.53 | 0.557 | 0.329 | 0.357 | 0.322 | 0.286 | 0.3
9 | HCC-366 | 0.128 | 0.111 | 0.092 | 0.0966 | 0.0852 | 0.441 | 0.306 | 0.605 | 0.441 | 0.409 | 0.337 | 0.385 | 0.371 | 0.391 | 0.255 | 0.284 |  | 0.386 | 0.306 | 0.276
10 | EMC-BAC-2 | 0.28 | 0.314 | 0.3 | 0.276 | 0.312 | 0.733 | 0.767 | 0.76 | 0.661 | 0.763 | 0.707 | 0.591 | 0.316 | 0.366 | 0.413 | 0.933 | 1.01 | 1.05 | 0.922 | 0.808
11 | NCI-H2405 | 0.727 | 0.812 | 0.712 | 0.727 | 0.712 | 0.865 | 0.847 | 0.826 | 0.869 | 0.798 | 1.13 | 1.04 | 0.919 | 0.938 | 1.01 | 0.686 | 0.818 | 0.751 | 0.793 | 0.586
12 | NCI-H358 | 0.0959 | 0.0952 | 0.109 | 0.102 | 0.1 | 0.732 | 0.568 | 0.561 | 0.551 | 0.573 | 0.614 | 0.769 | 0.704 | 0.635 | 0.824 | 0.227 | 0.22 | 0.221 | 0.268 | 0.182
13 | NCI-H1944 | 0.237 | 0.244 | 0.229 | 0.27 | 0.273 | 1.07 | 1.06 | 1.01 | 0.993 | 1.1 | 0.525 | 0.529 | 0.55 | 0.49 | 0.471 | 0.364 | 0.386 | 0.432 | 0.423 | 0.462
14 | EPLC-272H | 0.17 | 0.276 | 0.203 | 0.288 | 0.227 | 1.12 | 1.09 | 1.12 | 0.782 | 1.13 | 0.531 | 0.395 | 0.261 | 0.5 | 0.578 | 0.351 | 0.344 | 0.4 | 0.356 | 0.321
15 | NCI-H1915 | 0.446 | 0.438 | 0.433 | 0.404 | 0.416 | 0.861 | 0.934 | 0.918 | 0.859 | 0.894 | 0.466 | 0.515 | 0.597 | 0.54 | 0.486 | 0.238 | 0.281 | 0.28 | 0.252 | 0.281
16 | NCI-H596 | 0.777 | 0.856 | 0.775 | 0.744 | 0.731 | 0.976 | 0.87 | 1.06 | 0.989 | 1 | 0.612 | 0.619 | 0.674 | 0.508 | 0.528 | 0.886 | 0.954 | 1.09 | 0.972 | 1.72
